Measurements taken from ChEMBL document CHEMBL1201862, “PubChem BioAssay data set” (2004).
The source made the active and inactive calls.

Key:
HEK293 [1] = assay: NOD1 signaling inhibitors, primary screen, cell-based, luminescence, uHTS (AID 1578); type: functional; details: Homo sapiens
HEK293 [2] = assay: cells; type: functional, cell-based; details: Homo sapiens
HEK293 [3] = assay: cells; type: functional, cell-based; details: Homo sapiens; remark: listed apart in the source
[4] = target: Nucleotide-binding oligomerization domain-containing protein 2 (Homo sapiens, UniProt Q9HC29); assay: NOD2 signaling inhibitors, cell-based, luminescence, uHTS, HEK293 (AID 1566); type: functional
Sequence of Nucleotide-binding oligomerization domain-containing protein 2 (Q9HC29 whole entry, the tested form may be a part): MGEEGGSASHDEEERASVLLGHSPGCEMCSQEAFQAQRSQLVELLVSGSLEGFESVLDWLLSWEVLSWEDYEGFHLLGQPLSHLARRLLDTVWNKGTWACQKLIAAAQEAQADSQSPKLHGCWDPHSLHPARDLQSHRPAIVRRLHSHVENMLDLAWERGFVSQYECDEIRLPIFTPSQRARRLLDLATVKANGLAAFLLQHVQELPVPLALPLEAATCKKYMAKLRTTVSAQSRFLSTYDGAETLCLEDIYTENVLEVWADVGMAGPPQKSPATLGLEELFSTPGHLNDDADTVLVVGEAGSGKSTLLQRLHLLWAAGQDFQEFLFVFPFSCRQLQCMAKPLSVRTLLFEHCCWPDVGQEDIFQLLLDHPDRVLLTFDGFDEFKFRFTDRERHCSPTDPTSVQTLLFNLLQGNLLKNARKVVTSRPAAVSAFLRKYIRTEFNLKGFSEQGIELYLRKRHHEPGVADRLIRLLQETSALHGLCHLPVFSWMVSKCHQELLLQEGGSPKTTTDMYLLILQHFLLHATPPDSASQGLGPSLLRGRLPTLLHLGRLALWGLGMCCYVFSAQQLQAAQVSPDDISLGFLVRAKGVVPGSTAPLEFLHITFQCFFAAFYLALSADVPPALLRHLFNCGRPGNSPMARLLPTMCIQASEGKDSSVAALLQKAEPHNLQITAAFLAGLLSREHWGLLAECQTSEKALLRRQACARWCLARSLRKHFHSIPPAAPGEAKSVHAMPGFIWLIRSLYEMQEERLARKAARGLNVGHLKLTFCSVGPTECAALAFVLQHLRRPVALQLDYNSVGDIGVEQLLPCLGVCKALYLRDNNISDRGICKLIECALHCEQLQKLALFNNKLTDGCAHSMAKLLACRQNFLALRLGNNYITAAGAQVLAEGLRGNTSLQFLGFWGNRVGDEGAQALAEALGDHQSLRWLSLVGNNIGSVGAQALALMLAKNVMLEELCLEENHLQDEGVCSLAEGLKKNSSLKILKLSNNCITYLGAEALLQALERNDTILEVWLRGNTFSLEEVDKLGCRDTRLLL

HEK293 [5] = assay: NOD2 signaling inhibitors in MDP-stimulated cells, cell-based, uHTS, luminescence (AID 2001); type: functional; details: Homo sapiens
HEK293 [6] = assay: cells; type: functional, cell-based; details: Homo sapiens; remark: listed apart in the source
[7] = A549 cell cytotoxicity, dose response, cytotoxicity control, plate reader, cherry-pick, antagonist series (AID 743412); type: functional, cell-based
[8] = LGR2 antagonists, dose response, cell-based, HEK293, CRE-luciferase reporter, cherry pick, set 2 (AID 743343); type: functional;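 also: transfected cells were stimulated with diluted bursicon conditioned medium after compound addition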
[9] = MC4R antagonists, dose response, counter-screen for LGR2 antagonist project, cell-based, plate reader, cherry pick (AID 743444); type: functional;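 also: transfected HEK 293 cells stimulated with alpha-MSH peptide; potency of inhibitors of the alpha-MSH evoked signal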
[10] = target: T1, Heat shock factor protein 1 (Mus musculus, UniProt P38532); assay: inhibition of MG132-induced HSE-luciferase signal, confirmation, cell-based, NIH3T3, luminescence, dose retest (AID 2382); type: functional;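 also: NIH3T3 fibroblasts with HSF1-driven luciferase reporter stressed by proteasome inhibitor MG132; luminescence from HSF1-driven luciferase expression after 8 hours of MG132 stress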
T1 sequence (P38532 whole entry): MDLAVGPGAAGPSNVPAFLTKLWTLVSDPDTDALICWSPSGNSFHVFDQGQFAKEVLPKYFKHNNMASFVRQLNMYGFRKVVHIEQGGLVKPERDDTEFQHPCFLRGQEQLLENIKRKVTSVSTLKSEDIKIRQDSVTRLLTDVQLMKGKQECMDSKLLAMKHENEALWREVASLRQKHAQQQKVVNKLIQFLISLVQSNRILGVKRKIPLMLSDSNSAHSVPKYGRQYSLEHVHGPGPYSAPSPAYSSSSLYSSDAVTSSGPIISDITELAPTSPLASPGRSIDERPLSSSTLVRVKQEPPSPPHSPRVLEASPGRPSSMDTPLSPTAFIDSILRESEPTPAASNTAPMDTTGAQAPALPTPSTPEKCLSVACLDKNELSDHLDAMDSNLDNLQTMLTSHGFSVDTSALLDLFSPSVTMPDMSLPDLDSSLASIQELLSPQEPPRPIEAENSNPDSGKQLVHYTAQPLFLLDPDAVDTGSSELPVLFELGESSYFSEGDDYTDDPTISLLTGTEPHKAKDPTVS

[11] = target: Photoreceptor-specific nuclear receptor (Homo sapiens, UniProt Q9Y5X4); type: functional, cell-based;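 also: CHO-S cells with Gal4-NCOR and VP16-NR2E3 two-hybrid luciferase reporter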
Sequence of Photoreceptor-specific nuclear receptor (Q9Y5X4 whole entry, the tested form may be a part): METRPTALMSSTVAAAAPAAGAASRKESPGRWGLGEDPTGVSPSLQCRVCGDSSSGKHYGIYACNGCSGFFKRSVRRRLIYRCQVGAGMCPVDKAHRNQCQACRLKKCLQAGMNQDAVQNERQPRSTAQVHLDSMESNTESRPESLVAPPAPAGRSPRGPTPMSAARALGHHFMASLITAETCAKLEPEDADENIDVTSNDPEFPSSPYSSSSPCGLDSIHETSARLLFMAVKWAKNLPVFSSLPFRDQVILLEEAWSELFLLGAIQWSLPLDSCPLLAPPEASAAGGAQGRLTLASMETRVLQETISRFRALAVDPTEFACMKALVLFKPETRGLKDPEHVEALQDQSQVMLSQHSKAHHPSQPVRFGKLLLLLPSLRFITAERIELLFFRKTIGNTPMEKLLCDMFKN

[12] = HEp-2 cell cytotoxicity, dose response, cytotoxicity control for RSV inhibitor project, HTS (AID 2410); type: functional; details: human respiratory syncytial virus
[13] = inhibitors of HIV Env-driven cell fusion, dose response, cherry-pick (AID 652057); type: functional, cell-based
[14] = ZM109 Env clade C HIV-1 fusion inhibitors, dose response, HeLa effector, CEM target cells, luciferase, cherry-pick (AID 652058); type: functional, cell-based
[15] = off-target signal loss in HeLa-CEM21 co-culture – HeLa F-luc CTL cells, cherry-picked, counter-screen for HIV-1 Env fusion inhibitor project, dose response (AID 652040); type: functional, cell-based;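 also: potency for signal decrease marking cytotoxic or nonspecific inhibition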
[16] = inhibitors of clade B AD8 Env fusion, dose response, cell-based, cherry-pick (AID 652062); type: functional;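 also: luciferase signal from cell-cell fusion driven by HIV-1 clade B AD8 Env; potency is for inhibitors of fusion seen as a drop in luminescence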
cells [17] = assay: cells
[18] = target: T2, Low molecular weight phosphotyrosine protein phosphatase (Homo sapiens, UniProt P24666); type: functional; details: read-out: IC50_Mean
T2 sequence (P24666 whole entry): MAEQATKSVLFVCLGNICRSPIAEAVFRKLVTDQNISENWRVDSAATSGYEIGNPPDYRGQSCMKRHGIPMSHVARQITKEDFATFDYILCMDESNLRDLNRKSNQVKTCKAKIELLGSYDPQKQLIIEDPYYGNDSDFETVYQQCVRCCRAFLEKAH

[19] = target: T2, Low molecular weight phosphotyrosine protein phosphatase; type: functional; details: read-out: IC50_Mean; remark: listed apart in the source
[20] = inhibitors of firefly luciferase expression or activity, dose response, H4 neuroglioma cells, luminescence (AID 1990); type: functional, cell-based
[21] = luciferase reporter signal reduction – luminescence, H4-C neuroglioblastoma cells, dose response (AID 2458); type: functional, cell-based;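 also: H4 neuroglioblastoma cells stably carrying a luciferase reporter gene fusion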
BJ [22] = assay: cytotoxicity toward BJ-TERT fibroblasts, dose response, cell-based, RAS-independent, luminescence (AID 1933); type: functional; details: Homo sapiens
cells [23] = type: functional, cell-based
[24] = Luminescence Cell-Based Dose Response HTS to Identify Inhibitors of 5'UTR Stem-Loop Driven Prion Protein mRNA Translation in H4 Neuroglioblastoma Cells. [Related pubchem assays: 1827 (Project Summary), 1813 (Primary HTS)]; type: functional
[25] = inhibitors of SNCA 5'UTR-driven reporter translation, confirmation, H4 neuroglioma cells, luminescence (AID 1988); type: functional, cell-based
BJ [26] = assay: cells; type: functional, cell-based; details: Homo sapiens
BJ [27] = assay: cytotoxicity toward BJ-TERT-LT-ST fibroblasts, dose response, cell-based, RAS-independent, luminescence (AID 1935); type: functional; details: Homo sapiens;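 also: BJ fibroblasts immortalized with TERT plus LT and ST oncogenes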
[28] = cytotoxicity toward DRD oncogenic fibroblasts, dose response, cell-based, non-viral oncogenic, luminescence (AID 1934); type: functional; details: Homo sapiens
[29] = inhibitors of SNCA 5'UTR-driven translation, confirmation, luminescence, H4 neuroglioblastoma cells, dose confirmation (AID 2454); type: functional, cell-based;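 also: H4 neuroglioblastoma cells carrying an alpha-synuclein 5'UTR luciferase reporter; potency for inhibition of the luciferase signal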
cells [30] = type: functional, cell-based; remark: listed apart in the source
[31] = target: T3, Nuclear receptor subfamily 0 group B member 1 (Homo sapiens, UniProt P51843); type: functional, cell-based;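 also: HEK293T cells transfected with SF-1 and DAX-1 plus StAR promoter luciferase reporter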
T3 sequence (P51843 whole entry): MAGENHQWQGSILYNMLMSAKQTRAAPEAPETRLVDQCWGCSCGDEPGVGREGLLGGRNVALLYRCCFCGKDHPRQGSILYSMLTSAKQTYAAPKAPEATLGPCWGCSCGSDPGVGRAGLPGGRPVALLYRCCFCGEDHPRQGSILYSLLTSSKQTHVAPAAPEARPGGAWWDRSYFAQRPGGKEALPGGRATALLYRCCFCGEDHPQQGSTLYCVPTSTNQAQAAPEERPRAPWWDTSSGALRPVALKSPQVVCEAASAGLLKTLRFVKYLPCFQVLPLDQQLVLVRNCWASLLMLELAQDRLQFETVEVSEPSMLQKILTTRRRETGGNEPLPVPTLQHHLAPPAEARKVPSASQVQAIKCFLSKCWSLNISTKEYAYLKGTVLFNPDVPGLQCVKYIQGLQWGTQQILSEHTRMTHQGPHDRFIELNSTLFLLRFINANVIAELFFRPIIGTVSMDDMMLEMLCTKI

## COc1ccc(-n2ncc3c(N(C)C4CCCCC4)ncnc32)cc1
HEK293 [1]
  EC50: 7.56 µM (active)
HEK293 [2]
  IC50: 8.11 µM (active)
HEK293 [3]
  IC50: > 20 µM (inactive)
[4]
  EC50: < 0.31 µM (inactive)
HEK293 [5]
  IC50: 10.7 µM (inactive)
HEK293 [6]
  IC50: > 20 µM (inactive)
[7]
  AC50: > 52 µM (inactive)
[8]
  AC50: 0.246 µM (active)
[9]
  AC50: 0.578 µM (active)

## CCOC(=O)Cc1nnc2c(Nc3ccccc3F)nc3nonc3n12
[10]
  EC50: > 195 µM (not active)
[11]
  IC50: 3.87 µM (active)

## O=C(NCc1ccco1)c1ccc(Cn2c(=O)c3sccc3n(Cc3ccc(F)cc3)c2=O)cc1
[12]
  CC50: 44.8 µM (active)
[13]
  AC50: < 0.26 µM (active)
[14]
  AC50: 0.349 µM (active)
[15]
  AC50: < 0.26 µM (active)
[16]
  AC50: 0.665 µM (active)
Cells [17]
  IC50: 4.76 µM (active)

## CCCCCn1c(N)c(-c2nc3ccccc3o2)c2c([N+](=O)[O-])nn(CC)c(=O)c21
[18]
  IC50: 5.88 µM (active)
[19]
  IC50: 8.25 µM (active)

## Cc1sc(NC(=O)/C=C/c2ccc3c(c2)OCO3)nc1-c1ccccc1
[11]
  IC50: 7.04 µM (active)

## CCOC(=O)CSC1=C(C#N)C(c2ccc(C)o2)CC(=O)N1 (configuration not stated)
[20]
  EC50: 2.61 µM (active)
[21]
  EC50: 0.961 µM (active)
BJ [22]
  EC50: 1.31 µM (active)
Cells [23]
  EC50: 1.56 µM (active)
[24]
  EC50: 0.894 µM (active)
[25]
  EC50: < 0.1 µM (active)
BJ [26]
  EC50: 14.9 µM (active)
BJ [27]
  EC50: 1.36 µM (active)
[28]
  EC50: 1.04 µM (active)
[29]
  EC50: > 12 µM (inconclusive)
Cells [30]
  IC50: > 67.6 µM (inactive)
[31]
  IC50: > 67.6 µM (inactive)
